US20230049231A1 (priority 2019, published 2023)

Tests used:
[1] = molecular target: T1, Kv1.3 potassium channel (Homo sapiens, UniProt P22001); test: Kv1.3 potassium channel blocker activity, automated whole-cell patch clamp (Patchliner); type: cell-based; details: Kv1.3 potassium channel, whole-cell patch clamp
T1 construct: expressed in transfected cells
How it was run: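 IC50 came from Hill-equation fits of peak and AUC currents from the final pulse at each concentration, normalized to compound-free control. Compounds applied consecutively at 30 nM to 100 μM (up to 0.3% DMSO) to Kv1.3-expressing CHO-K1 cells, P/4 leak subtraction. Pulses were +40 mV, 100 ms, from −90 mV holding, at 0.1 Hz on Patchliner.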

[2] = molecular target: T2, hERG channel (Homo sapiens, UniProt Q12809); test: hERG electrophysiology, automated whole-cell patch clamp (Patchliner); type: cell-based; details: hERG channel, whole-cell patch clamp
T2 construct: expressed in transfected cells
T2 sequence (Q12809 whole entry): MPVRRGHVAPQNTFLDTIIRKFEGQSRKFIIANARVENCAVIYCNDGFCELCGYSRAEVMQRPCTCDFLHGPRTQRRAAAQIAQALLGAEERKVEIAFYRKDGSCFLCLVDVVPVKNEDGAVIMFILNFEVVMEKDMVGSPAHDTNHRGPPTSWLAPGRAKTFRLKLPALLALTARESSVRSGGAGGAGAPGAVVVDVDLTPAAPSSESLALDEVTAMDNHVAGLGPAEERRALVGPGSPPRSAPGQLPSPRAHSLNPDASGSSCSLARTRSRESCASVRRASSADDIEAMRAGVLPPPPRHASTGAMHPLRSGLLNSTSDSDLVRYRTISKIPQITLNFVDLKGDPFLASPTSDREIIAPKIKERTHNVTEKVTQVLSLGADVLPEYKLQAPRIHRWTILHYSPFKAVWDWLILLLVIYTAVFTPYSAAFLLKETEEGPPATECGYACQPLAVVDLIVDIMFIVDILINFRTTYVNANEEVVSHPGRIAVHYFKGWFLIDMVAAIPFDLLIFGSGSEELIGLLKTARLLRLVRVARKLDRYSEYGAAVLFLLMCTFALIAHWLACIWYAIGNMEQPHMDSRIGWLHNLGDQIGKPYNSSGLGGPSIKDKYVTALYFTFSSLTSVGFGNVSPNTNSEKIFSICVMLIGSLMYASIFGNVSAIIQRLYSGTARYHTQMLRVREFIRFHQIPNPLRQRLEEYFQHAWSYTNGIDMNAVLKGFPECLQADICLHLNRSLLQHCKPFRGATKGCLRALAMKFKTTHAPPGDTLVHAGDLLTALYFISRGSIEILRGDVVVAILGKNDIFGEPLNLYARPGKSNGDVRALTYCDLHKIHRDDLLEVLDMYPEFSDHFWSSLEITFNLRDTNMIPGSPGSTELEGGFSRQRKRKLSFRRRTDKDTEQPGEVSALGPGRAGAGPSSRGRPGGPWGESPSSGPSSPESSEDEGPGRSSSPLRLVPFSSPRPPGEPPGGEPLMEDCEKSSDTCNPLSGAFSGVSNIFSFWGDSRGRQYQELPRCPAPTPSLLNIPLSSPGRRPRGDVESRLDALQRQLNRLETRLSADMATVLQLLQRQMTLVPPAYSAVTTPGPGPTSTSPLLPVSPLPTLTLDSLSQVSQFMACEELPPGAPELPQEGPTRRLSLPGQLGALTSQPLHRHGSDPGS
Experimental: This assay is used to evaluate the disclosed compounds' inhibition activities against the hERG channel.
CHO-K1 cells stably expressing hERG were grown in Ham's F-12 Medium with glutamine containing 10% heat-inactivated FBS, 1% penicillin/streptomycin, hygromycin (100 μg/ml) and G418 (100 μg/ml). Cells were grown in culture flasks at 37° C. in a 5% CO2-humidified incubator.
The cells were bathed in an extracellular solution containing 140 mM NaCl, 4 mM KCl, 2 mM CaCl2), 1 mM MgCl2, 5 mM glucose, and 10 mM HEPES; pH adjusted to 7.4 with NaOH; 295-305 mOsm. The internal solution contained 50 mM KCl, 10 mM NaCl, 60 mM KF, 20 mM EGTA, and 10 mM HEPES; pH adjusted to 7.2 with KOH; 285 mOsm. All compounds were dissolved in DMSO at 30 mM. Compound stock solutions were freshly diluted with external solution to concentrations of 30 nM, 100 nM, 300 nM, 1 μM, 3 μM, 10 μM, 30 μM and 100 μM. The highest content of DMSO (0.3%) was present in 100 μM.
The voltage protocol (see Table 3) was designed to simulate voltage changes during a cardiac action potential with a 300 ms depolarization to +20 mV (analogous to the plateau phase of the cardiac action potential), a repolarization for 300 ms to −50 mV (inducing a tail current) and a final step to the holding potential of −80 mV. The pulse frequency was 0.3 Hz. Control (compound-free) and compound pulse trains for each compound concentration applied contained 70 pulses.
Whole-cell current recordings and compound application were enabled by means of an automated patch clamp platform Patchliner (Nanion). EPC 10 patch clamp amplifier (HEKA) along with Patchmaster software (HEKA Elektronik Dr. Schulze GmbH) was used for data acquisition. Data were sampled at 10 kHz without filtering. Increasing compound concentrations were applied consecutively to the same cell without washouts in between.
AUC and PEAK values were obtained with Patchmaster (HEKA Elektronik Dr. Schulze GmbH). To determine IC50 the last single pulse in the pulse train corresponding to a given compound concentration was used. Obtained AUC and PEAK values in the presence of compound were normalized to control values in the absence of compound. Using Origin (OridinLab), IC50 was derived from data fit to Hill equation: Icompound/Icontrol=(100-A)/(1+([compound]/IC50)nH)+A, where IC50 is the concentration at which current inhibition is half-maximal, [compound] is the applied compound concentration, A is the fraction of current that is not blocked and nH is the Hill coefficient.

T1 sequence (P22001 whole entry): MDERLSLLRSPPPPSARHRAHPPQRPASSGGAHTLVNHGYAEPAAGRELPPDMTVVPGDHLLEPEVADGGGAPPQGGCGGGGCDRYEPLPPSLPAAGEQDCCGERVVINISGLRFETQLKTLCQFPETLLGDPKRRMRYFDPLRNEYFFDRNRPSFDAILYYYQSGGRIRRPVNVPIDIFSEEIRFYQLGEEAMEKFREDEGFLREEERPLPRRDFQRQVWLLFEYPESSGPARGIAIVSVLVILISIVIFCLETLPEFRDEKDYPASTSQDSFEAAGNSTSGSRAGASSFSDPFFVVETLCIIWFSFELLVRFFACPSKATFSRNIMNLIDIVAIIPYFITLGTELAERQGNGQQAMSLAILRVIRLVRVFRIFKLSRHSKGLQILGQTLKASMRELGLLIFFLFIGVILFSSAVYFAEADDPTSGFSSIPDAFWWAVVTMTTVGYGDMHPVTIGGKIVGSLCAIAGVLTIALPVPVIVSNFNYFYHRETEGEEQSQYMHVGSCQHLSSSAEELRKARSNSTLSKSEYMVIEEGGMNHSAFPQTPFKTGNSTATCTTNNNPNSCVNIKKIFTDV

Row | SMILES | IC50 [1] | IC50 [2]
1 | CN(CCO)[C@H]1CC(=O)N2C[C@@H](c3c(O)ccc(Cl)c3Cl)C[C@H]2C1 (single isomer, unassigned) [Compound 205] | < 1 µM | > 30 µM
2 | O=C1CC(N2CCNCC2)C[C@@H]2C[C@H](c3c(O)ccc(Cl)c3Cl)CN12 (single isomer, unassigned) [Compound 207] | < 1 µM | > 30 µM
3 | O=C1C[C@@H](c2cn[nH]c2)C[C@@H]2C[C@H](c3c(O)ccc(Cl)c3Cl)CN12 (single isomer, unassigned) [Compound 215] | < 1 µM | > 30 µM
4 | O=C1C[C@H](c2cn[nH]c2)C[C@@H]2C[C@H](c3c(O)ccc(Cl)c3Cl)CN12 (single isomer, unassigned) [Compound 216] | < 1 µM | < 10 µM
5 | NC[C@@]1(O)CC(=O)N2C[C@@H](c3c(O)ccc(Cl)c3Cl)C[C@H]2C1 (single isomer, unassigned) [Compound 218] | < 1 µM | > 30 µM
6 | NC[C@]1(O)CC(=O)N2C[C@@H](c3c(O)ccc(Cl)c3Cl)C[C@H]2C1 (single isomer, unassigned) [Compound 219] | < 1 µM | > 30 µM
7 | NC(=O)[C@H]1CC(=O)N2C[C@@H](c3c(O)ccc(Cl)c3Cl)C[C@H]2C1 (single isomer, unassigned) [Compound 231] | < 1 µM | > 30 µM
8 | O=C(NCCO)[C@@H]1CC(=O)N2C[C@@H](c3c(O)ccc(Cl)c3Cl)C[C@H]2C1 (single isomer, unassigned) [Compound 234] | < 1 µM | > 30 µM
9 | O=C(NC1CNC1)[C@H]1CC(=O)N2C[C@@H](c3c(O)ccc(Cl)c3Cl)C[C@H]2C1 (single isomer, unassigned) [Compound 235] | < 1 µM | > 30 µM
10 | O=C(NC1CNC1)[C@@H]1CC(=O)N2C[C@@H](c3c(O)ccc(Cl)c3Cl)C[C@H]2C1 (single isomer, unassigned) [Compound 236] | < 1 µM | > 30 µM
11 | O=C1C[C@@H](CO)C[C@@H]2C[C@H](c3c(O)ccc(Cl)c3Cl)CN12 (single isomer, unassigned) [Compound 237] | < 1 µM | > 30 µM
12 | O=C1C[C@H](CO)C[C@@H]2C[C@H](c3c(O)ccc(Cl)c3Cl)CN12 (single isomer, unassigned) [Compound 238] | < 1 µM | > 30 µM
13 | CNC[C@@H]1CC(=O)N2C[C@@H](c3c(O)ccc(Cl)c3Cl)C[C@H]2C1 (single isomer, unassigned) [Compound 239] | < 1 µM | > 30 µM
14 | O=C1C[C@@H](CN2CC(O)C2)C[C@@H]2C[C@H](c3c(O)ccc(Cl)c3Cl)CN12 (single isomer, unassigned) [Compound 242] | < 1 µM | > 30 µM
15 | O=C1C[C@H](CN2CC(O)C2)C[C@@H]2C[C@H](c3c(O)ccc(Cl)c3Cl)CN12 (single isomer, unassigned) [Compound 243] | < 1 µM | < 30 µM
16 | N[C@H]1CC2C[C@H](c3c(O)ccc(Cl)c3Cl)CN2C1=O (single isomer, unassigned) [Compound 248] | < 1 µM | < 10 µM
17 | O=C1O[C@@H](CO)[C@@H]2C[C@H](c3c(O)ccc(Cl)c3Cl)CN12 (single isomer, unassigned) [Compound 253] | < 1 µM | > 30 µM
18 | O=C1O[C@H](CO)[C@@H]2C[C@H](c3c(O)ccc(Cl)c3Cl)CN12 (single isomer, unassigned) [Compound 254] | < 1 µM | > 30 µM
19 | CC(C)(O)[C@@H]1OC(=O)N2C[C@@H](c3c(O)ccc(Cl)c3Cl)C[C@@H]12 (single isomer, unassigned) [Compound 256] | < 1 µM | > 30 µM
20 | C[C@H](O)[C@H]1OC(=O)N2C[C@@H](c3c(O)ccc(Cl)c3Cl)C[C@@H]12 (single isomer, unassigned) [Compound 258] | < 1 µM | > 30 µM
21 | C[C@@H](O)[C@@H]1OC(=O)N2C[C@@H](c3c(O)ccc(Cl)c3Cl)C[C@@H]12 (single isomer, unassigned) [Compound 259] | < 1 µM | > 30 µM

Row | SMILES | IC50 [1] | IC50 [2]
22 | O=C1O[C@@H]([C@@H](O)CO)[C@@H]2C[C@H](c3c(O)ccc(Cl)c3Cl)CN12 (single isomer, unassigned) [Compound 260] | < 1 µM | > 30 µM
23 | O=C1O[C@@H]([C@H](O)CO)[C@@H]2C[C@H](c3c(O)ccc(Cl)c3Cl)CN12 (single isomer, unassigned) [Compound 261] | < 1 µM | > 30 µM
24 | O=C1O[C@H]([C@@H](O)CO)[C@@H]2C[C@H](c3c(O)ccc(Cl)c3Cl)CN12 (single isomer, unassigned) [Compound 262] | < 1 µM | > 30 µM
25 | O=C1O[C@H]([C@H](O)CO)[C@@H]2C[C@H](c3c(O)ccc(Cl)c3Cl)CN12 (single isomer, unassigned) [Compound 263] | < 1 µM | > 30 µM
26 | C[C@]1(CO)OC(=O)N2C[C@@H](c3c(O)ccc(Cl)c3Cl)C[C@H]21 (single isomer, unassigned) [Compound 264] | < 1 µM | > 30 µM
27 | C[C@@]1(CO)OC(=O)N2C[C@@H](c3c(O)ccc(Cl)c3Cl)C[C@H]21 (single isomer, unassigned) [Compound 265] | < 1 µM | > 30 µM
28 | O=C1OC[C@@H](O)[C@@H]2C[C@H](c3c(O)ccc(Cl)c3Cl)CN12 (single isomer, unassigned) [Compound 266] | < 1 µM | > 30 µM
29 | O=C1OC[C@H](O)[C@@H]2C[C@H](c3c(O)ccc(Cl)c3Cl)CN12 (single isomer, unassigned) [Compound 267] | < 1 µM | > 30 µM
30 | O=C1O[C@H](CO)C[C@@H]2C[C@H](c3c(O)ccc(Cl)c3Cl)CN12 (single isomer, unassigned) [Compound 268] | < 1 µM | > 30 µM
31 | O=C1O[C@@H](CO)C[C@@H]2C[C@H](c3c(O)ccc(Cl)c3Cl)CN12 (single isomer, unassigned) [Compound 269] | < 1 µM | > 30 µM
32 | O=C1O[C@H](CCO)[C@@H]2C[C@H](c3c(O)ccc(Cl)c3Cl)CN12 (single isomer, unassigned) [Compound 270] | < 1 µM | < 30 µM
33 | O=C1O[C@@H](CCO)[C@@H]2C[C@H](c3c(O)ccc(Cl)c3Cl)CN12 (single isomer, unassigned) [Compound 271] | < 1 µM | < 30 µM
34 | NC[C@@H]1OC(=O)N2C[C@@H](c3c(O)ccc(Cl)c3Cl)C[C@@H]12 (single isomer, unassigned) [Compound 272] | < 1 µM | < 30 µM
35 | NC[C@H]1OC(=O)N2C[C@@H](c3c(O)ccc(Cl)c3Cl)C[C@@H]12 (single isomer, unassigned) [Compound 273] | < 1 µM | > 30 µM
36 | O=C(CO)NC[C@@H]1OC(=O)N2C[C@@H](c3c(O)ccc(Cl)c3Cl)C[C@@H]12 (single isomer, unassigned) [Compound 274] | < 1 µM | > 30 µM
37 | O=C(CO)NC[C@H]1OC(=O)N2C[C@@H](c3c(O)ccc(Cl)c3Cl)C[C@@H]12 (single isomer, unassigned) [Compound 275] | < 1 µM | > 30 µM
38 | O=C(NC[C@@H]1OC(=O)N2C[C@@H](c3c(O)ccc(Cl)c3Cl)C[C@@H]12)C1CNC1 (single isomer, unassigned) [Compound 277] | < 1 µM | > 30 µM
39 | O=C(NC[C@H]1OC(=O)N2C[C@@H](c3c(O)ccc(Cl)c3Cl)C[C@@H]12)C1CNC1 (single isomer, unassigned) [Compound 278] | < 1 µM | > 30 µM
40 | O=C1O[C@@H](CN2CCNCC2)[C@@H]2C[C@H](c3c(O)ccc(Cl)c3Cl)CN12 (single isomer, unassigned) [Compound 279] | < 1 µM | < 30 µM
41 | O=C1O[C@H](CN2CCNCC2)[C@@H]2C[C@H](c3c(O)ccc(Cl)c3Cl)CN12 (single isomer, unassigned) [Compound 280] | < 1 µM | > 30 µM
